Source: ChEMBL document CHEMBL5247574, “Recent Progress on Bile Acid Receptor Modulators for Treatment of Metabolic Diseases” (J Med Chem, 2016)
Converted amounts (≈) assume the structure as drawn. One block for each compound: values may come before it.

Columns and labels:
[1] = molecular target: T1, G-protein coupled bile acid receptor 1 (Homo sapiens) (UniProt Q8TDU6); test: Agonist activity at human TGR5 transfected in human NCI-H716 cells assessed as increase in cAMP production at 10 uM relative to control; assay type: cell-based; conditions: filed as agonist
T1 sequence (whole entry): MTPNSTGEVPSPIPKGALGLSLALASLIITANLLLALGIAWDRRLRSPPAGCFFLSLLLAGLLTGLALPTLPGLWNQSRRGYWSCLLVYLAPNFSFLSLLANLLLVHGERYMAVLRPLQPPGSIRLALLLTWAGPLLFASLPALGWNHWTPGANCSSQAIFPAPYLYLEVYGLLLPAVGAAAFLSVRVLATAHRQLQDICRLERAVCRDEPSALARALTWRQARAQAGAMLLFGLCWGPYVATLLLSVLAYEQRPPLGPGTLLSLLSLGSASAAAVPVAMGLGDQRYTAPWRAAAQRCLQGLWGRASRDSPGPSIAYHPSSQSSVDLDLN

[2] = molecular target: T1, G-protein coupled bile acid receptor 1 (Homo sapiens); test: Agonist activity at human TGR5 transfected in human NCI-H716 cells assessed as increase in GLP-1 secretion at 5 uM relative to control; assay type: cell-based; conditions: filed as agonist
[3] = molecular target: T1, G-protein coupled bile acid receptor 1 (Homo sapiens); test: Agonist activity at human TGR5 transfected in CHO cells assessed as increase in cAMP production at 100 nM relative to control; assay type: cell-based; conditions: filed as agonist
[4] = molecular target: T2, G-protein coupled bile acid receptor 1 (Homo sapiens, UniProt Q8TDU6); test: Agonist activity at TGR5 in human HEK293 cells assessed as increase in cAMP production; assay type: cell-based
T2 sequence (Q8TDU6 whole entry): T1 sequence (whole entry)

Bile acid receptor [5] = molecular target: T3, Bile acid receptor (Homo sapiens, UniProt Q96RI1); test: Agonist activity at FXR (unknown origin)
T3 sequence (Q96RI1 whole entry): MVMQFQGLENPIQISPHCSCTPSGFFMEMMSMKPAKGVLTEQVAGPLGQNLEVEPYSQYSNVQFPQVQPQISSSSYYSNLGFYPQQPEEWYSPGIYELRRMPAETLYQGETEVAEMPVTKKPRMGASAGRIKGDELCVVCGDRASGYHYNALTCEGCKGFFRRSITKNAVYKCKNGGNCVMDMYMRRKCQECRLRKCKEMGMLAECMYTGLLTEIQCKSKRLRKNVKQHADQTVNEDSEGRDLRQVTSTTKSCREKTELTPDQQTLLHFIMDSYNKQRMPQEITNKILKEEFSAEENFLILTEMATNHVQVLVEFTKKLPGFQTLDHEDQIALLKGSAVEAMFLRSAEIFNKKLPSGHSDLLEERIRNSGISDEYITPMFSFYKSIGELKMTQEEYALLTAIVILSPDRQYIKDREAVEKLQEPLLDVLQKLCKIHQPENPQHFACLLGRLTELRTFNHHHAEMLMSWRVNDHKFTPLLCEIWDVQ

[6] = molecular target: T4, G-protein coupled bile acid receptor 1 (Mus musculus) (UniProt Q80SS6); test: In vivo agonist activity at TGR5 in C57/Bl6 mouse assessed as increase in GLP-1 secretion at 30 mg/kg, po relative to control; assay type: functional, organism-based
T4 sequence (whole entry): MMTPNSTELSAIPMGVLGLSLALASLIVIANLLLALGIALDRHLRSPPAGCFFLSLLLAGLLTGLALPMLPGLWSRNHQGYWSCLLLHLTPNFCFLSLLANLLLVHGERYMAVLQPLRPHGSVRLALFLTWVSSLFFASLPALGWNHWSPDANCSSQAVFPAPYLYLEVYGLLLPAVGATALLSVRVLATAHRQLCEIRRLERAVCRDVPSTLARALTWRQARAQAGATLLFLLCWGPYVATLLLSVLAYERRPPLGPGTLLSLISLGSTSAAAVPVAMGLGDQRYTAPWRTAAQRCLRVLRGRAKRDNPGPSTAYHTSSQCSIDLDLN

[7] = molecular target: T2, G-protein coupled bile acid receptor 1; test: Agonist activity at human TGR5 transfected in CHO cells assessed as increase in cAMP production; assay type: cell-based
Bile acid receptor [8] = molecular target: T3, Bile acid receptor; test: Antagonist activity at FXR (unknown origin) by HTFR assay
[9] = molecular target: T2, G-protein coupled bile acid receptor 1; test: Agonist activity at human TGR5 expressed in human HEK293 cells measured after 5.5 hrs by steady-glo luciferase assay; assay type: cell-based
[10] = molecular target: T1, G-protein coupled bile acid receptor 1 (Homo sapiens); test: Agonist activity at human TGR5 expressed in human HEK293 cells at 20 uM measured after 5.5 hrs by steady-glo luciferase assay relative to control; assay type: cell-based; conditions: filed as agonist
[11] = molecular target: T2, G-protein coupled bile acid receptor 1; test: Agonist activity at human TGR5
[12] = molecular target: T2, G-protein coupled bile acid receptor 1; test: Agonist activity at human TGR5 transfected in CHO-K1 cells assessed as increase in cAMP production; assay type: cell-based
Bile acid receptor [13] = molecular target: T3, Bile acid receptor; test: Antagonist activity at FXR in human HepG2 cells in presence of CDCA by luciferase reporter assay; assay type: cell-based
[14] = molecular target: T1, G-protein coupled bile acid receptor 1 (Homo sapiens); test: Agonist activity at human TGR5 transfected in CHO cells assessed as increase in cAMP production at 1 uM relative to control; assay type: cell-based; conditions: filed as agonist
[15] = molecular target: T5, G-protein coupled bile acid receptor 1 (Rattus norvegicus) (UniProt Q80T02); test: Agonist activity at TGR5 in rat Primary intestinal cell assessed as stimulation of GLP-1 secretion incubated for 2 hrs by ELISA analysis relative to control; assay type: cell-based; conditions: filed as agonist
T5 sequence (whole entry): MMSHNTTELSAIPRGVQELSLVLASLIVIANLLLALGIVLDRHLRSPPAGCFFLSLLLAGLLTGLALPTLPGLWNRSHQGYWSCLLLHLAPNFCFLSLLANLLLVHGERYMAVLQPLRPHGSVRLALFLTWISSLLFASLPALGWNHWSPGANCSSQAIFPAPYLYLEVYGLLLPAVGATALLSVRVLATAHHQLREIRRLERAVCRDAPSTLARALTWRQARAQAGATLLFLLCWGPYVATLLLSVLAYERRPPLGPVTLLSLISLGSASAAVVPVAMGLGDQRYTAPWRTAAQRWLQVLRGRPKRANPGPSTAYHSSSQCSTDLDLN

[16] = Clearance in human liver microsomes; assay type: ADME, Microsome; conditions: liver microsomes, read-out: CLH
[17] = Clearance in mouse liver microsomes; assay type: ADME, Microsome; conditions: liver microsomes, read-out: CLH
[18] = molecular target: T6, G-protein coupled bile acid receptor 1 (Mus musculus, UniProt Q80SS6); test: Agonist activity at mouse TGR5
T6 sequence (Q80SS6 whole entry): T4 sequence (whole entry)

[19] = Aqueous solubility of compound; assay type: physicochemical; conditions: buffer

Structure (SMILES): CNc1cccc([C@H]2O[C@H](CC(=O)Nc3ccccc3F)C(=O)N(CC(C)C)c3ccccc32)c1
Activity [1]: 100%
Activity [2]: 157%

Structure (SMILES): Brc1ccc(CCNCc2cc3ccncc3nc2-c2ccsc2)cc1
EC50 [4]: < 10000 nM

Structure (SMILES): CO[C@H](c1ccccc1)c1nc2cc(F)c(F)cc2n1C(C(=O)Nc1ccc(C(=O)O)cc1C)C1CCCCC1 (stereo not given in full)
IC50 (Bile acid receptor [5]): 20 nM

Structure (SMILES): Cc1cc(/C(C[C@H](c2ccc(C3C[C@@H]4C(C(=O)O)[C@@H]4C3)cc2)c2ccc(F)cc2F)=N\O)ccn1 (stereo not given in full)
EC50 [7]: 1 nM

Structure (SMILES): FC(F)(F)c1ccc(CNCc2cc3ccsc3nc2-c2ccsc2)cc1
EC50 [4]: < 10000 nM

Structure (SMILES): O=C(O)c1ccccc1-c1ccc(Cn2ccc(OCc3c(-c4c(Cl)cccc4Cl)noc3-c3cccs3)n2)cc1
IC50 (Bile acid receptor [8]): 4200 nM

Structure (SMILES): O=c1c2cccnc2nc(-c2cncc(Cl)c2)n1NCc1ccc(Cl)cc1F
EC50 [4]: < 10000 nM

Structure (SMILES): Fc1ccccc1-c1ccncc1CN1C(c2ccco2)=NOC1c1cc(C(F)(F)F)cc(C(F)(F)F)c1 (stereo not given)
EC50 [9]: 15 nM
Activity [10]: 102%

Structure (SMILES): CC(C)n1ncc2cc(CNCc3ccc(C(F)(F)F)cc3)c(-c3ccsc3)cc21
EC50 [4]: < 10000 nM

Structure (SMILES): CC[C@@H](CC[C@@H](C)[C@H]1CCC2=C3CC[C@H]4C(C)=CCC[C@]4(C)C3CC[C@@]21C)C(C)C (stereo not given in full)
IC50 (Bile acid receptor [13]): 35000 nM

Structure (SMILES): O=C(c1cc(C(F)(F)F)cc(C(F)(F)F)c1)N1CCOc2nccc(-c3ccccc3)c2C1
Activity [14]: 100%

Structure (SMILES): O=C(c1cc(C(F)(F)F)cc(C(F)(F)F)c1)N1CCCn2cccc2C1c1ccccc1 (stereo not given)
EC50 [4]: < 10000 nM

Structure (SMILES): O=C1COc2nccc(-c3ccccc3F)c2CN1Cc1cc(C(F)(F)F)cc(C(F)(F)F)c1
Activity [15]: 360%

Structure (SMILES): O=C(Nc1nnn[nH]1)c1cc(Cl)c(Oc2ncccc2C(=O)N2CCN(C3CC3)c3ccccc32)cc1Cl
microsomal CLint [16]: 56 µL/min/mg
microsomal CLint [17]: 56 µL/min/mg
EC50 ([11]; read-out: EC50): 76 nM
EC50 [18]: 350 nM
solubility [19]: 535 µg/mL (≈ 970 µM)

Structure (SMILES): C=C1[C@@H](O)CC[C@]2(C)C3CC[C@@]4(C)C(=C3CC[C@@H]12)CC[C@@H]4[C@H](C)CC[C@H](CC)C(C)C (stereo not given in full)
IC50 (Bile acid receptor [13]): 40000 nM

Now from value to compound:

Activity [3]: 97%
Structure (SMILES): COc1ccc(C(C)(C)c2cnc(SCCOc3c(F)cccc3Cl)n2-c2ccc(F)cc2)cc1OC

Activity [3]: 147%
Structure (SMILES): COc1ccc(C(C)(C)c2nnc(SCCOc3ccc(-n4cnc(-c5ccsc5)c4)cc3)n2-c2ccc(F)cc2)cc1OC

Activity [6]: 320%
Activity [3]: 129%
Structure (SMILES): COc1ccc(C(C)(C)c2cnc(SCCNCc3cccnc3)n2-c2ccc(F)cc2)cc1OC

EC50 (Bile acid receptor [8]): 80000 nM
Structure (SMILES): CC(C)c1onc(-c2c(Cl)cccc2Cl)c1COc1ccn(-c2cccc(C(=O)O)c2)n1

EC50 ([11]; read-out: pEC50 (converted)): 1000 nM
Structure (SMILES): COc1ccc(S(=O)(=O)N2CCCN(S(=O)(=O)c3ccc(OC)c(OC)c3)CC2)cc1OC [SB-756050]

EC50 [12]: 23 nM
Structure (SMILES): Cc1c(Cl)cccc1OCCCC(=O)N1CCCc2c(-c3cnn(Cc4c(F)cc(C(=O)NCCS(=O)(=O)O)cc4Cl)c3)cccc21

EC50 [4]: < 0.5 nM
Structure (SMILES): Cc1ccc(-c2csc3nnc(SCc4c(F)cccc4Cl)n23)cc1

EC50 [4]: < 100 nM
Structure (SMILES): Fc1cccc(F)c1-c1ccncc1CN1C(c2ccco2)=NOC1c1ccccc1 (stereo not given)
